Key:
[1] = system: giant foxtail; assay: Test B pre/postemergence giant foxtail; assay type: in vivo, Setaria faberii
Method in brief: (§1)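 Test chemicals in a non-phytotoxic solvent mixture with surfactant were sprayed preemergence onto planted seeds and postemergence onto plants 2 to 18 cm tall (1- to 4-leaf stage). After twelve to sixteen days in a greenhouse, injury was visually rated against untreated controls from 0 (no effect) to 10 (complete control).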

[2] = system: blackgrass; assay: Test B pre/postemergence blackgrass; assay type: in vivo, Alopecurus myosuroides
Method in brief: as §1

[3] = system: surinam grass; assay: Test B pre/postemergence surinam grass; assay type: in vivo, Brachiaria decumbens
Method in brief: as §1

[4] = system: velvetleaf; assay: Test B pre/postemergence velvetleaf; assay type: in vivo, Abutilon theophrasti
Method in brief: as §1

[5] = system: purple nutsedge; assay: Test B pre/postemergence purple nutsedge; assay type: in vivo, Cyperus rotundus
Method in brief: as §1

[6] = system: sugar beet; assay: Test B pre/postemergence sugar beet; assay type: in vivo, Beta vulgaris
Method in brief: as §1

[7] = system: pigweed; assay: Test B pre/postemergence pigweed; assay type: in vivo, Amaranthus retroflexus
Method in brief: as §1

[8] = system: wild oat; assay: Test B pre/postemergence wild oat; assay type: in vivo, Avena fatua
Method in brief: as §1

[9] = system: rape; assay: Test B pre/postemergence rape; assay type: in vivo, Brassica napus
Method in brief: as §1

[10] = system: morningglory; assay: Test B pre/postemergence morningglory; assay type: in vivo, Ipomoea hederacea
Method in brief: as §1

[11] = system: crabgrass; assay: Test B pre/postemergence crabgrass; assay type: in vivo, Digitaria sanguinalis
Method in brief: as §1

[12] = system: soybean; assay: Test B pre/postemergence soybean; assay type: in vivo, Glycine max
Method in brief: as §1

[13] = system: cocklebur; assay: Test B pre/postemergence cocklebur; assay type: in vivo, Xanthium strumarium
Method in brief: as §1

[14] = system: wheat; assay: Test B pre/postemergence wheat; assay type: in vivo, Triticum aestivum
Method in brief: as §1

[15] = system: bedstraw; assay: Test B pre/postemergence bedstraw; assay type: in vivo, Galium aparine
Method in brief: as §1

[16] = system: corn; assay: Test B pre/postemergence corn; assay type: in vivo, Zea mays
Method in brief: as §1

[17] = Postemergence, Rate 62 g/ha, scale of 0 to 10, 0 is no effect, 10 is complete control
[18] = Postemergence, Rate 125 g/ha, scale 0 to 10, 0 is no effect, 10 is complete control
[19] = Postemergence, Rate 500 g/ha, scale 0 to 10, 0 is no effect, 10 is complete control
[20] = Preemergence, Rate 62 g/ha, scale 0 to 10 (0 no effect, 10 complete control)
[21] = Preemergence, Rate 125 g/ha, scale 0 to 10, 0 is no effect, 10 is complete control
[22] = Preemergence, Rate 500 g/ha, scale of 0 to 10 where 0 is no effect and 10 is complete control
[23] = Rate 250 g/ha, Postemergence, scale of 0 to 10 where 0 is no effect and 10 is complete control

CC(C)N(C(=O)n1oc(=O)n(CCCC(F)(F)F)c1=O)c1ccc(Cl)cc1 [Compound 555]
3: Redroot pigweed plant response rating (0 to 10 scale) ([7]; Preemergence, Rate 250 g/ha) | Plant response rating, Cocklebur [13, 19] | Wheat plant response rating [14, 22]
2: Blackgrass plant response rating [2, 18] | Plant response rating, Blackgrass [2, 23] | Plant response rating, Velvetleaf [4, 23] | Sugarbeets plant response rating [6, 20] | Plant response rating, Redroot pigweed [7, 19] | Plant response rating, Redroot pigweed [7, 23] | Plant response rating, Wild oats [8, 19] | Morningglory plant response rating [10, 18] | Plant response rating, Soybean [12, 19] | Soybean plant response rating [12, 22] | Plant response rating, Soybean [12, 23] | Cocklebur plant response rating (0 to 10 scale) ([13]; Preemergence, Rate 250 g/ha) | Plant response rating, Wheat [14, 19] | Wheat plant response rating (0 to 10 scale) ([14]; Preemergence, Rate 250 g/ha) | Bedstraw plant response rating [15, 17] | Corn plant response rating [16, 22]
4: Plant response rating, B. signalgrass [3, 19] | Plant response rating, Velvetleaf [4, 19] | Rape plant response rating [9, 17]
10: Giant foxtail plant response rating [1, 21] | Giant foxtail plant response rating (0 to 10 scale) ([1]; Preemergence, Rate 250 g/ha) | Giant foxtail plant response rating [1, 22] | Plant response rating, Crabgrass [11, 19] | Crabgrass plant response rating (0 to 10 scale) ([11]; Preemergence, Rate 250 g/ha) | Crabgrass plant response rating [11, 22]
8: Plant response rating, Giant foxtail [1, 19] | Plant response rating, Giant foxtail [1, 23] | Blackgrass plant response rating [2, 22] | B. signalgrass plant response rating [3, 22]
0: Giant foxtail plant response rating [1, 17] | Giant foxtail plant response rating [1, 18] | Blackgrass plant response rating [2, 17] | Blackgrass plant response rating [2, 20] | Blackgrass plant response rating [2, 21] | Blackgrass plant response rating (0 to 10 scale) ([2]; Preemergence, Rate 250 g/ha) | B. signalgrass plant response rating [3, 17] | B. signalgrass plant response rating [3, 18] | Plant response rating, B. signalgrass [3, 23] | Velvetleaf plant response rating [4, 17] | Velvetleaf plant response rating [4, 20] | Velvetleaf plant response rating [4, 21] | Velvetleaf plant response rating (0 to 10 scale) ([4]; Preemergence, Rate 250 g/ha) | Nutsedge plant response rating [5, 17] | Nutsedge plant response rating [5, 18] | Plant response rating, Nutsedge [5, 19] | Nutsedge plant response rating [5, 20] | Nutsedge plant response rating [5, 21] | Nutsedge plant response rating (0 to 10 scale) ([5]; Preemergence, Rate 250 g/ha) | Nutsedge plant response rating [5, 22] | Plant response rating, Nutsedge [5, 23] | Sugarbeets plant response rating [6, 17] | Plant response rating, Sugarbeets [6, 19] | Plant response rating, Sugarbeets [6, 23] | Redroot pigweed plant response rating [7, 17] | Redroot pigweed plant response rating [7, 20] | Redroot pigweed plant response rating [7, 21] | Wild oats plant response rating [8, 17] | Wild oats plant response rating [8, 20] | Wild oats plant response rating [8, 21] | Wild oats plant response rating (0 to 10 scale) ([8]; Preemergence, Rate 250 g/ha) | Plant response rating, Wild oats [8, 23] | Rape plant response rating [9, 20] | Rape plant response rating [9, 21] | Rape plant response rating (0 to 10 scale) ([9]; Preemergence, Rate 250 g/ha) | Rape plant response rating [9, 22] | Morningglory plant response rating [10, 20] | Morningglory plant response rating [10, 21] | Morningglory plant response rating (0 to 10 scale) ([10]; Preemergence, Rate 250 g/ha) | Morningglory plant response rating [10, 22] | Crabgrass plant response rating [11, 17] | Crabgrass plant response rating [11, 18] | Soybean plant response rating [12, 20] | Soybean plant response rating [12, 21] | Soybean plant response rating (0 to 10 scale) ([12]; Preemergence, Rate 250 g/ha) | Cocklebur plant response rating [13, 17] | Cocklebur plant response rating [13, 18] | Cocklebur plant response rating [13, 20] | Cocklebur plant response rating [13, 21] | Plant response rating, Cocklebur [13, 23] | Wheat plant response rating [14, 20] | Wheat plant response rating [14, 21] | Plant response rating, Wheat [14, 23] | Bedstraw plant response rating [15, 20] | Bedstraw plant response rating [15, 21] | Bedstraw plant response rating (0 to 10 scale) ([15]; Preemergence, Rate 250 g/ha) | Bedstraw plant response rating [15, 22] | Corn plant response rating [16, 17] | Corn plant response rating [16, 18] | Plant response rating, Corn [16, 19] | Corn plant response rating [16, 20] | Corn plant response rating [16, 21] | Corn plant response rating (0 to 10 scale) ([16]; Preemergence, Rate 250 g/ha) | Plant response rating, Corn [16, 23]
9: Giant foxtail plant response rating [1, 20] | Crabgrass plant response rating [11, 20] | Crabgrass plant response rating [11, 21] | Plant response rating, Crabgrass [11, 23] | Cocklebur plant response rating [13, 22] | Bedstraw plant response rating [15, 18] | Plant response rating, Bedstraw [15, 23]
6: B. signalgrass plant response rating [3, 20] | Velvetleaf plant response rating [4, 22] | Plant response rating, Morningglory [10, 19] | Wheat plant response rating [14, 17]
1: Morningglory plant response rating [10, 17] | Soybean plant response rating [12, 17]
7: Redroot pigweed plant response rating [7, 22] | Wild oats plant response rating [8, 22]
5: Plant response rating, Blackgrass [2, 19] | Sugarbeets plant response rating [6, 21] | Sugarbeets plant response rating [6, 22] | Rape plant response rating [9, 18] | Plant response rating, Rape [9, 19] | Plant response rating, Morningglory [10, 23]

From US6737383B1, “Herbicidal oxadiazolidines” (priority 1999, dated 2004)
